Experimental data published in US9394268B2, “(E)-1-(5-methoxy-2,2-dimethyl-2H-chromen-8-yl)-3-(4-methoxyphenyl)prop-2-en-1-one and analogs thereof, as well as preparation method and use thereof” (Sichuan University, priority 2012, dated 2016).
Entries after “also recorded” stand apart in the source; their conditions may differ.

What was measured:
[1] = test system: HepG2; test: Cell proliferative assay (MTT), HepG2; format: cell-based; conditions: Homo sapiens, 72 h incubation, read-out: IC50s HepG2
Outline: (§1)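 IC50 values (mean±SEM, at least three independent experiments) come from dose-response curves of MTT absorbance at 590 nm. Treatment lasted 72 h, starting 24 h after seeding.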

[2] = test system: B16F10 cells; test: Malignant melanoma B16 tumor xenograft study; format: in vivo, C57 mice; conditions: 5, 10 and 15 mg/kg intravenous once every other day for seven times; vs control P<0.01
Method: In Vivo Antitumor Activity (1) In Malignant Melanoma B16 Tumor Xenograft Study of Millepachine
Six-week-old female mice were obtained from Chinese Academy of Medical Science (Beijing, China). B16F10 cells (5×10^5 in 100 μl saline) were injected subcutaneously into the right flanks of C57 mice. When the tumor reached about 100 mm^3, mice were selected and randomly divided into four groups including control and three compounds-treated groups. The animals were intravenous injection with Millepachine (5, 10 and 15 mg/kg) or vehicle once every other day for seven times. Tumor burden was measured every 2 or 3 days with a caliper (calculated volume [mm^3]=π/6×length×width×width). After treatment, mice were killed tumors were collected and weighted.

[3] = test system: several cancer cell lines; conditions: background statement; cited from earlier work
[4] = test system: tumor cells; test: Cell proliferative assay (MTT), summary over tumor cells; format: cell-based; conditions: summary in words of Table 1, colon, liver, leukemia lines
Method: (§2) The synthesized compounds were evaluated for their cytotoxin activity against suspended tumor cells. These cells were seeded on 96-well plates and incubated for 24 h. Selected compounds were added at various doses and incubated for 72 h, MTT was then added, and the absorbance was measured at a wavelength of 590 nm. IC50 values are expressed as the mean±SEM from the dose-response curves of at least three independent experiments.

[5] = test system: HT29; test: Cell proliferative assay (MTT), HT29; format: cell-based; conditions: Homo sapiens, HT-29, 72 h incubation, read-out: IC50s HT29
Method: as §2

[6] = test system: K562; test: Cell proliferative assay (MTT), K562; format: cell-based; conditions: Homo sapiens, 72 h incubation, read-out: IC50s K562
Outline: as §1

[7] = test system: HCT116; test: Cell proliferative assay (MTT), HCT116; format: cell-based; conditions: Homo sapiens, HCT-116, 72 h incubation, read-out: IC50s HCT116
Method: as §2

[8] = test system: SW620; test: Cell proliferative assay (MTT), SW620; format: cell-based; conditions: Homo sapiens, SW-620, 72 h incubation, read-out: IC50s SW620
Method: as §2

[9] = test system: HeLa-C3 cells; conditions: background statement; cited from earlier work
[10] = test system: B16F10 cells; test: Malignant melanoma B16-induced lung metastasis; format: in vivo, C57 mice; conditions: 7.5 and 15 mg/kg intravenous once every other day for seven times
Method: (2) The Effect of Millepachine on the Malignant Melanoma B16-Induced Lung Metastasis
Six-week-old female mice were obtained from Chinese Academy of Medical Science (Beijing, China). B16F10 cells (5×10^5 in 100 μl saline) were injected intravenous into the caudal vein of C57 mice. The animals were intravenous injection with Millepachine (7.5 and 15 mg/kg) or vehicle once every other day for seven times after incubation of cell. After stop treatment for 20 days, mice were killed and lung metastasis was observed.

[11] = test system: HepG2 cells; test: Human hepatocarcinoma HepG2 xenograft (SKLBC-45 study); format: in vivo, Balb/c nude mice; conditions: 2.5, 5, 10, 20 mg/kg intravenous every three days for eight times; vs vehicle control
Method: (5) In Vivo Anti-Tumor Activity of SKLBC-45 on Human Hepatocarcinoma HepG2 Xenograft
Six-week-old Balb/c nude mice were obtained from Chinese Academy of Medical Science (Beijing, China). HepG2 cells (10^7 in 100 μl saline) were injected subcutaneously into the right flanks of the mice. 14 days after cell injection, seventy mice were selected and randomly divided into seven groups including saline control, vehicle control, four doses of SKLBC-45 (2.5, 5, 10, 20 mg/kg) and positive control Adriamycin (5 mg/kg). The animals were intravenously injected with saline, SKLBC-45, adriamycin or vehicle every three days for eight times. Tumor burden and animal body weight was measured every 2 or 3 days. The survival rate was also recorded. After treatment, mice were killed and tumors were collected and weighted.

[12] = test system: A375; test: Cell proliferative assay (MTT), A375; format: cell-based; conditions: Homo sapiens, A-375, 72 h incubation, read-out: IC50s A375
Outline: as §1

[13] = test system: A549; test: Cell proliferative assay (MTT), A549; format: cell-based; conditions: Homo sapiens, 72 h incubation, read-out: IC50s A549
Outline: as §1

[14] = test system: LO2; test: Cell proliferative assay (MTT), LO2; format: cell-based; conditions: Homo sapiens, L02, 72 h incubation, read-out: IC50s LO2
Outline: as §1

[15] = test system: SMMC-7221; test: Cell proliferative assay (MTT), SMMC-7221; format: cell-based; conditions: 72 h incubation, read-out: IC50s SMMC-7221
Outline: as §1

[16] = test system: HepG2 cells; test: Human hepatocarcinoma HepG2 xenograft (SKLBC-76 study); format: in vivo, Balb/c nude mice; conditions: 2.5, 5, 10 mg/kg intravenous every three days for eight times; vs control
Method: (6) In Vivo Anti-Tumor Activity of SKLBC-76 on Human Hepatocarcinoma HepG2 Xenograft
Six-week-old Balb/c nude mice were obtained from Chinese Academy of Medical Science (Beijing, China). HepG2 cells (10^7 in 100 μl saline) were injected subcutaneously into the right flanks of the mice. 14 days after cell injection, fifty mice were selected and randomly divided into five groups including control, three doses of SKLBC-76 (2.5, 5, 10 mg/kg) and positive control taxol (5 mg/kg). The animals were intravenously injected with SKLBC-76 or taxol every three days for eight times. Tumor burden and animal body weight was measured every 2 or 3 days. The survival rate was also recorded. After treatment, mice were killed and tumors were collected and weighted.

[17] = test system: C26 cells; test: C26-tumor bearing mice model (SKLBC-83 study); format: in vivo, Balb/c mice; conditions: 10 mg/kg intravenous every two days for eight times; vs control
Method: (7) In Vivo Anti-Tumor Activity of SKLBC-83 on C26-Tumor Bearing Mice Model.
Six-week-old Balb/c mice were obtained from Chinese Academy of Medical Science (Beijing, China). C26 cells (3×10^6 in 100 μl saline) were injected subcutaneously into the right flanks of the mice. 10 days after cell injection, thirty mice were selected and randomly divided into three groups including saline control, SKLBC-83 (10 mg/kg) and positive control taxol (5 mg/kg). The animals were intravenously injected with […] or taxol every two days for eight times. Tumor burden and animal body weight was measured every 2 or 3 days. The survival rate was also recorded. After treatment, mice were killed and tumors were collected and weighted.

[18] = test system: C26 cells; test: C26-tumor bearing mice model (seven-compound study); format: in vivo, Balb/c mice; conditions: 10 mg/kg intravenous every two days for eight times; vs control
Method: (8) In Vivo Anti-Tumor Activity of SKLBC-45, SKLBC-68, SKLBC-74, SKLBC-75, SKLBC-76, SKLBC-79, SKLBC-80 on C26-Tumor Bearing Mice Model.
Six-week-old Balb/c mice were obtained from Chinese Academy of Medical Science (Beijing, China). C26 cells (3×10^6 in 100 μl saline) were injected subcutaneously into the right flanks of the mice. 10 days after cell injection, when the average tumor volume reached ˜60 mm^3. Fifty-four mice were selected and randomly divided into nine groups including saline control, seven compounds and positive control taxol (5 mg/kg). The treatment started one day later. The animals were intravenously injected with SKLBC-45, SKLBC-68, SKLBC-74, SKLBC-75, SKLBC-76, SKLBC-79, SKLBC-80 (all 10 mg/kg) or taxol every two days for eight times. Tumor burden and animal body weight was measured every 2 or 3 days. The survival rate was also recorded. After treatment, mice were killed and tumors were collected and weighted. The results were shown in FIGS. 15, 16, 17, 18, 19, 20 and 21.

Row | IC50 [1] | IC50 [5] | IC50 [6] | IC50 [7] | IC50 [8] | IC50 [12] | IC50 [13] | IC50 [15] | Compound | inhibitory activity against tumor cells [4] | IC50 [14] | also measured
1 | 4280 nM | 3790 nM | 3020 nM | > 10000 nM | 2250 nM |  |  |  | COc1ccc(C(=O)/C=C/c2ccc3ccccc3n2)c2c1C=CC(C)(C)O2 [SKLBC-16, (E)-1-(5-methoxy-2,2-dimethyl-2H-chromen-8-yl)-3-(quinolin-2-yl)prop-2-en-1-one] | better inhibitory activity |  | 
2 | 2610 nM | 3730 nM | 7770 nM | > 10000 nM | 3520 nM |  |  |  | COc1ccc(C(=O)/C=C/c2ccc([N+](=O)[O-])cc2)c2c1C=CC(C)(C)O2 [SKLBC-17, (E)-1-(5-methoxy-2,2-dimethyl-2H-chromen-8-yl)-3-(4-nitrophenyl)prop-2-en-1-one] | better inhibitory activity |  | 
3 | 2830 nM | 4260 nM | 5870 nM | 8050 nM | 4090 nM |  |  |  | COc1ccc(C(=O)/C=C/c2cccc([N+](=O)[O-])c2)c2c1C=CC(C)(C)O2 [SKLBC-18, (E)-1-(5-methoxy-2,2-dimethyl-2H-chromen-8-yl)-3-(3-nitrophenyl)prop-2-en-1-one] | better inhibitory activity |  | 
4 | 780 nM | 1470 nM | 3550 nM | 1630 nM | 670 nM |  |  |  | COc1ccc(/C=C/C(=O)c2ccc(OC)c3c2OC(C)(C)C=C3)cc1O [SKLBC-28, (E)-3-(3-hydroxy-4-methoxyphenyl)-1-(5-methoxy-2,2-dimethyl-2H-chromen-8-yl)prop-2-en-1-one] | better inhibitory activity |  | 
5 | 5760 nM | 2120 nM | 5400 nM | > 10000 nM | 5000 nM |  |  |  | COc1ccc(C(=O)/C=C/c2ccccn2)c2c1C=CC(C)(C)O2 [SKLBC-33, (E)-1-(5-methoxy-2,2-dimethyl-2H-chromen-8-yl)-3-(pyridin-2-yl)prop-2-en-1-one] | better inhibitory activity |  | 
6 | 148 nM |  | 522 nM |  |  | 620 nM | 360 nM | 610 nM | CCC(=O)Oc1ccc(C(=O)/C=C/c2ccc(N(CC)CC)cc2)c2c1C=CC(C)(C)O2 [SKLBC-45, (E)-8-(3-(4-(diethylamino)phenyl)acryloyl)-2,2-dimethyl-2H-chromen-5-yl propionate] | better inhibitory activity; also recorded: best inhibitory activity | 20000 nM | average tumor weight [11]: significantly lower; growth of tumor [11]: significantly inhibited
7 | 103 nM |  | 164 nM |  |  | 443 nM | 475 nM | 2150 nM | CCC(=O)Oc1cc(/C=C/C(=O)c2ccc(OC)c3c2OC(C)(C)C=C3)ccc1OC [SKLBC-76, (E)-2-methoxy-5-(3-(5-methoxy-2,2-dimethyl-2H-chromen-8-yl)-3-oxoprop-1-en-1-yl)phenyl propionate] |  | > 10000 nM | average tumor weight [16]: significantly lower; growth of tumor [16]: significantly inhibited
8 | 42 nM |  | 246 nM |  |  | 111 nM | 285 nM | 278 nM | COc1ccc(/C=C/C(=O)c2ccc(OC)c3c2OC(C)(C)C=C3)cc1N [SKLBC-83, (E)-3-(3-amino-4-methoxyphenyl)-1-(5-methoxy-2,2-dimethyl-2H-chromen-8-yl)prop-2-en-1-one] |  | 8500 nM | average tumor weight [17]: significantly lower; growth of tumor [17]: significantly inhibited; average tumor weight [18]: significantly lower; growth of tumor [18]: significantly inhibited

Row | Compound | IC50 [1] | IC50 [5] | IC50 [6] | IC50 [7] | IC50 [8] | IC50 [12] | IC50 [13] | IC50 [15] | inhibitory activity against tumor cells [4] | IC50 [14] | also measured
9 | COc1ccc(/C=C/C(=O)c2ccc(OC)c3c2OC(C)(C)C=C3)cc1 [Millepachine, (E)-1-(5-methoxy-2,2-dimethyl-2H-chromen-8-yl)-3-(4-methoxyphenyl)prop-2-en-1-one] | 2610 nM | 3290 nM | 4560 nM | 4660 nM | 760 nM |  |  |  | better inhibitory activity |  | survivor time of tumor-bearing mice [2]: prolong the survivor time; tumor growth [2]: suppress tumor growth; cytotoxic effects against cancer cells [3]: significant cytotoxic and apoptotic effects; inhibitory activity against tumor cells ([4]; listed as SKLBC-1): best inhibitory activity; apoptotic effects against cancer cells [9]: significant cytotoxic and apoptotic effects; lung metastasis [10]: dose-dependently inhibited; also recorded: significantly inhibited
